{"source": "PubChem BioAssay AID2060513", "about": "(Molecular Pharmacology Branch, DTP, NCI, 2025)", "test_system": "299254-011-R-J1-PDC complex spheroids viability", "test": "Anticancer human tumor 299254-011-R-J1-PDC patient-derived melanoma cell line growth inhibition [GQUAD]", "conditions": "for IC50: curve of first compound; for viability, T/C: stronger effect = lower value", "description": "DNA G-quadruplex Stabilizer Agents in Combinations in Complex Spheroids\nA high-throughput screen of multi-cell type tumor spheroids was designed to identify active combinations of DNA G-quadruplex stabilizer agents and targeted small molecules. Complex spheroids include a stromal component modeled by human endothelial cells (HUVEC) and fibroblasts modeled by human mesenchymal stem cells (MSCs). The concentration ranges selected for each drug and investigational agent were based upon clinically achievable concentrations if the clinical Cmax of the agent was known.\nCompounds. The drugs and investigational agents: pidnarulex (CX-5461; NSC782164), APTO-253 (NSC789042), BRACO-19 (NSC847499), peposertib (NSC802822), ceralasertib (NSC780249), elimusertib (NSC800525), camonsertib (NSC841442), AZD-1390 (NSC803789), olaparib (NSC753686), talazoparib (NSC767125), ART-558 (NSC835418), sotorasib (NSC818433), MRTX-1133 (NSC836407), SN-38 (NSC673596), topotecan (NSC609699), etoposide (NSC141540), doxorubicin (NSC123127), gemcitabine (NSC613327), 5-fluorouracil (NSC19893), paclitaxel (NSC125973), vemurafenib (NSC761431), panobinostat (NSC761190), R-306465 (JNJ-16241199; NSC773264), adavosertib (NSC754352), TP-3654 (NSC805149), carboplatin (NSC241240), KSQ-4279 (NSC840948), and staurosporine (NSC755774) were obtained from the National Cancer Institute (NCI) Developmental Therapeutics Program Chemical Repository (34). The FDA-approved anticancer drug set is available from the NCI Developmental Therapeutics Program. […] The stock solutions were prepared in dimethyl sulfoxide (DMSO, Sigma-Aldrich, St. Louis, MO, cat. D2650) at 800-fold the tested concentration and stored at -70 degrees C prior to their use. All drugs and investigational agents were tested over a range starting from a high concentration at or near the clinical Cmax and decreasing in half-log increments. If the clinical Cmax for an agent had not been determined, the highest concentration tested was 10 microM.\n2.3 Cell Culture. All cells were maintained in an incubator at 37 degrees C and 5% CO2 with 95% humidity. The PDC lines were cultured according to standard operating procedures established by the NCI PDMR. All PDCs were thawed and cultured in Matrigel-coated flasks prepared with a working solution of 1X Ham's F-12 nutrient mix, without supplementation (Invitrogen, cat. 11765054), 100 U/mL penicillin-streptomycin (Invitrogen, cat. 15140122), and 2.5% Matrigel (Corning Inc., cat. 354248) for the first three passages. The 857933-349-R-J2-PDC line was cultured in 6C/Colon 1B media, which includes advanced DMEM/F-12 (Thermo Fisher Scientific, cat. 12634028), 10 mM HEPES (Thermo Fisher Scientific, cat. 15630080), 1X GlutaMAX supplement (Thermo Fisher Scientific, cat. 35050061), 0.1 mg/mL primocin (InvivoGen, cat. ant-pm-2), 10% defined fetal bovine serum, heat inactivated (HyClone Laboratories Inc., cat. SH30070.03HI), 50% L-WRN conditioned media (ATCC, cat. CRL-3276), 1.25 mM N-Acetyl-L-cysteine (Sigma-Aldrich, cat. A9165), 10 mM nicotinamide (Sigma-Aldrich, cat. N0636), 1X B-27 supplement (Thermo Fisher Scientific, cat. 17504044), 1X N-2 supplement (Thermo Fisher Scientific, cat. 17502048), 10 microM Y-27632 dihydrochloride (Tocris Bioscience, cat. 1254), and 50 ng/mL human EGF recombinant protein (Thermo Fisher Scientific, cat. PHG0311). The 485176-168-R4-J1-PDC line was cultured in Panc media, which includes all 6C/Colon 1B media components plus 100 ng/mL human FGF-10 (Thermo Fisher Scientific, cat. 100-26), 500 nM SB-431542 (Selleckchem, cat. S1067), and gastrin (Tocris, cat. 3006).\n[…]"}
{"compound": "O=C(NO)c1cnc(N2CCN(S(=O)(=O)c3ccc4ccccc4c3)CC2)nc1", "note": "+ CN(C)c1ccc(Nc2c3ccc(NC(=O)CCN4CCCC4)cc3nc3cc(NC(=O)CCN4CCCC4)ccc23)cc1;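 note: spheroids exposed to the agents for seven days before readout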;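 for viability, T/C: percent viability relative to DMSO vehicle control wells = 100%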", "values": [{"measurement": "IC50", "setting": "second compound 0.0316 µM", "value": 0.412, "unit": "µM"}, {"measurement": "IC50", "setting": "second compound 0.1 µM", "value": 0.447, "unit": "µM"}, {"measurement": "IC50", "setting": "second compound 0.316 µM", "value": 0.415, "unit": "µM"}, {"measurement": "IC50", "setting": "second compound 1 µM", "value": 0.519, "unit": "µM"}, {"measurement": "IC50", "setting": "second compound 3.16 µM", "value": 0.512, "unit": "µM"}, {"measurement": "IC50", "setting": "second compound 10 µM", "value": 0.448, "unit": "µM"}, {"measurement": "viability, T/C", "setting": "second compound 0.0316 µM, first compound 0.0316 µM", "value": 111, "unit": "%"}, {"measurement": "viability, T/C", "setting": "second compound 0.0316 µM, first compound 0.1 µM", "value": 90, "unit": "%"}, {"measurement": "viability, T/C", "setting": "second compound 0.0316 µM, first compound 0.316 µM", "value": 65.2, "unit": "%"}, {"measurement": "viability, T/C", "setting": "second compound 0.0316 µM, first compound 1 µM", "value": 3.37, "unit": "%"}, {"measurement": "viability, T/C", "setting": "second compound 0.0316 µM, first compound 3.16 µM", "value": 0.26, "unit": "%"}, {"measurement": "viability, T/C", "setting": "second compound 0.0316 µM, first compound 10 µM", "value": 0.29, "unit": "%"}, {"measurement": "viability, T/C", "setting": "second compound 0.1 µM, first compound 0.0316 µM", "value": 103, "unit": "%"}, {"measurement": "viability, T/C", "setting": "second compound 0.1 µM, first compound 0.1 µM", "value": 91.5, "unit": "%"}, {"measurement": "viability, T/C", "setting": "second compound 0.1 µM, first compound 0.316 µM", "value": 69.2, "unit": "%"}, {"measurement": "viability, T/C", "setting": "second compound 0.1 µM, first compound 1 µM", "value": 5.67, "unit": "%"}, {"measurement": "viability, T/C", "setting": "second compound 0.1 µM, first compound 3.16 µM", "value": 0.22, "unit": "%"}, {"measurement": "viability, T/C", "setting": "second compound 0.1 µM, first compound 10 µM", "value": 0.27, "unit": "%"}, {"measurement": "viability, T/C", "setting": "second compound 0.316 µM, first compound 0.0316 µM", "value": 109, "unit": "%"}, {"measurement": "viability, T/C", "setting": "second compound 0.316 µM, first compound 0.1 µM", "value": 92.7, "unit": "%"}, {"measurement": "viability, T/C", "setting": "second compound 0.316 µM, first compound 0.316 µM", "value": 65, "unit": "%"}, {"measurement": "viability, T/C", "setting": "second compound 0.316 µM, first compound 1 µM", "value": 3.85, "unit": "%"}, {"measurement": "viability, T/C", "setting": "second compound 0.316 µM, first compound 3.16 µM", "value": 0.2, "unit": "%"}, {"measurement": "viability, T/C", "setting": "second compound 0.316 µM, first compound 10 µM", "value": 0.27, "unit": "%"}, {"measurement": "viability, T/C", "setting": "second compound 1 µM, first compound 0.0316 µM", "value": 112, "unit": "%"}, {"measurement": "viability, T/C", "setting": "second compound 1 µM, first compound 0.1 µM", "value": 93.2, "unit": "%"}, {"measurement": "viability, T/C", "setting": "second compound 1 µM, first compound 0.316 µM", "value": 85, "unit": "%"}, {"measurement": "viability, T/C", "setting": "second compound 1 µM, first compound 1 µM", "value": 3.59, "unit": "%"}, {"measurement": "viability, T/C", "setting": "second compound 1 µM, first compound 3.16 µM", "value": 0.21, "unit": "%"}, {"measurement": "viability, T/C", "setting": "second compound 1 µM, first compound 10 µM", "value": 0.25, "unit": "%"}, {"measurement": "viability, T/C", "setting": "second compound 3.16 µM, first compound 0.0316 µM", "value": 100, "unit": "%"}, {"measurement": "viability, T/C", "setting": "second compound 3.16 µM, first compound 0.1 µM", "value": 90.1, "unit": "%"}, {"measurement": "viability, T/C", "setting": "second compound 3.16 µM, first compound 0.316 µM", "value": 82.3, "unit": "%"}, {"measurement": "viability, T/C", "setting": "second compound 3.16 µM, first compound 1 µM", "value": 5.14, "unit": "%"}, {"measurement": "viability, T/C", "setting": "second compound 3.16 µM, first compound 3.16 µM", "value": 0.2, "unit": "%"}, {"measurement": "viability, T/C", "setting": "second compound 3.16 µM, first compound 10 µM", "value": 0.24, "unit": "%"}, {"measurement": "viability, T/C", "setting": "second compound 10 µM, first compound 0.0316 µM", "value": 115, "unit": "%"}, {"measurement": "viability, T/C", "setting": "second compound 10 µM, first compound 0.1 µM", "value": 85.8, "unit": "%"}, {"measurement": "viability, T/C", "setting": "second compound 10 µM, first compound 0.316 µM", "value": 71, "unit": "%"}, {"measurement": "viability, T/C", "setting": "second compound 10 µM, first compound 1 µM", "value": 3.61, "unit": "%"}, {"measurement": "viability, T/C", "setting": "second compound 10 µM, first compound 3.16 µM", "value": 0.22, "unit": "%"}, {"measurement": "viability, T/C", "setting": "second compound 10 µM, first compound 10 µM", "value": 0.26, "unit": "%"}]}
